Source: ChEMBL document CHEMBL1909046, “DrugMatrix in vitro pharmacology data”

Key:
[1] = target: Sodium-dependent dopamine transporter (Homo sapiens, UniProt Q01959); experiment: DRUGMATRIX: Dopamine Transporter radioligand binding (ligand: [125I] RTI-55); format: cell membranes, CHO-K1, Membrane; details: Not Active = under 50% inhibition at 10 µM; for Ki: read-out: Ki
D(1A) dopamine receptor = D(1A) dopamine receptor (Homo sapiens, UniProt P21728); experiment: DRUGMATRIX: Dopamine D1 radioligand binding (ligand: [3H] SCH-23390); format: cell membranes, CHO, Membrane; details: Not Active = under 50% inhibition at 10 µM
Cytochrome P450 2C19 = Cytochrome P450 2C19 (Homo sapiens, UniProt P33261); details: bti-tn-5b1-4; further: in other assays of this panel Not Active means under 50% inhibition at 10 µM
Leukotriene C4 synthase = target: T1, Leukotriene C4 synthase (Cavia porcellus, UniProt A6XA80); format: tissue-based, Lung;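 further: enzyme inhibition assay of leukotriene C4 synthase, using LTA4 as the substrate; in other assays of this panel Not Active means under 50% inhibition at 10 µM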
T1 sequence (A6XA80 whole entry): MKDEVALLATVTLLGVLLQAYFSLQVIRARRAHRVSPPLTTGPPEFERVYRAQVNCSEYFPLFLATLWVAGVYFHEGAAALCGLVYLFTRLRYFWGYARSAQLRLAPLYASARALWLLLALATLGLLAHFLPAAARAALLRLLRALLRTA

[2] = target: Matrix metalloproteinase-9 (Homo sapiens, UniProt P14780); experiment: biochemical; format: cell-based;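 further: inhibition of isolated MMP-9 enzyme activity toward a synthetic peptide substrate, from the DrugMatrix protease screening panel; in other assays of this panel Not Active means under 50% inhibition at 10 µM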
[3] = target: Mitogen-activated protein kinase 3 (Homo sapiens, UniProt P27361); experiment: DRUGMATRIX: Protein Serine/Threonine Kinase, ERK1 enzyme inhibition (substrate: Myelin Basic Protein); set-up: species or system Escherichia coli; details: Not Active = under 50% inhibition at 10 µM
Mitogen-activated protein kinase 3, sequence (P27361 whole entry): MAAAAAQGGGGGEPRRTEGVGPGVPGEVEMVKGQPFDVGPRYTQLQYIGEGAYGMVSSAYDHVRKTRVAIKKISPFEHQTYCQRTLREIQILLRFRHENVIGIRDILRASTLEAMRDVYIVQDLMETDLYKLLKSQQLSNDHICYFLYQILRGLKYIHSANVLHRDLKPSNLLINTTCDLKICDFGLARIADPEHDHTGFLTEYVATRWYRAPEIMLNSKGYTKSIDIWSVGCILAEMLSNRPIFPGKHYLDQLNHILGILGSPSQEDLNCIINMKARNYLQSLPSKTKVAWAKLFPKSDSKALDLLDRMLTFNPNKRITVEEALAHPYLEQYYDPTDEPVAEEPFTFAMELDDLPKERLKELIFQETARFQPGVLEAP

Matrix metalloproteinase-9, sequence (P14780 whole entry): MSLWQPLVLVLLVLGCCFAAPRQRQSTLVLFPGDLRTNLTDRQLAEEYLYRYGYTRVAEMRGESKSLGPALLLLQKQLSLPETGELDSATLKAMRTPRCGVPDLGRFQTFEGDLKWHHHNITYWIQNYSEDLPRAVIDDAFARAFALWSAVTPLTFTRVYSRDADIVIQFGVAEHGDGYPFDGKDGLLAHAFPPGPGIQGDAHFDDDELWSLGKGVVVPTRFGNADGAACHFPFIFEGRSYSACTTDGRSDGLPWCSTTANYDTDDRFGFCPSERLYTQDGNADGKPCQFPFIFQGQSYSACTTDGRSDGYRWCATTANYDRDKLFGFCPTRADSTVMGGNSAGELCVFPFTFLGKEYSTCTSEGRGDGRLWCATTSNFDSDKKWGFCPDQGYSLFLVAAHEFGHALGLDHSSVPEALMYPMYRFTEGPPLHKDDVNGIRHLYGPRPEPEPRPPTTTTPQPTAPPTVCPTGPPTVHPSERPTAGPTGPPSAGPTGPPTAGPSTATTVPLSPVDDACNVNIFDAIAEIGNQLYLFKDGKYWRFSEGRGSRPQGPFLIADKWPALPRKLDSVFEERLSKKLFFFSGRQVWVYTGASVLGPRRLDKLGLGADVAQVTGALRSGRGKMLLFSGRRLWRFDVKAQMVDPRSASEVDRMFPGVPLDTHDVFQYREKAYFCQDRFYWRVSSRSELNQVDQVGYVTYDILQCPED
Cytochrome P450 2C19, sequence (P33261 whole entry): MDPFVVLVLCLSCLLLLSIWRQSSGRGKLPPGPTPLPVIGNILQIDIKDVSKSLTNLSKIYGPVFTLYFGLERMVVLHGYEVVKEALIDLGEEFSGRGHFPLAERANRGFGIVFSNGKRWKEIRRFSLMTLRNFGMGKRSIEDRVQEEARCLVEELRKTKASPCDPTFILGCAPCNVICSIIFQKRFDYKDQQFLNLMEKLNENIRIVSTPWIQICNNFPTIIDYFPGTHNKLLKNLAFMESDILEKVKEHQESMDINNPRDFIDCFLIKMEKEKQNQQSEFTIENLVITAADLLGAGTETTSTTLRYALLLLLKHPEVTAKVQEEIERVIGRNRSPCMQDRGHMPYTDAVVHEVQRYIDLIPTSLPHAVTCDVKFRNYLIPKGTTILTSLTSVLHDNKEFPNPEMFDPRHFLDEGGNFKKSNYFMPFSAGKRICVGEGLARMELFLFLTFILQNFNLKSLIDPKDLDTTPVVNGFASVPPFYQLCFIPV
D(1A) dopamine receptor, sequence (P21728 whole entry): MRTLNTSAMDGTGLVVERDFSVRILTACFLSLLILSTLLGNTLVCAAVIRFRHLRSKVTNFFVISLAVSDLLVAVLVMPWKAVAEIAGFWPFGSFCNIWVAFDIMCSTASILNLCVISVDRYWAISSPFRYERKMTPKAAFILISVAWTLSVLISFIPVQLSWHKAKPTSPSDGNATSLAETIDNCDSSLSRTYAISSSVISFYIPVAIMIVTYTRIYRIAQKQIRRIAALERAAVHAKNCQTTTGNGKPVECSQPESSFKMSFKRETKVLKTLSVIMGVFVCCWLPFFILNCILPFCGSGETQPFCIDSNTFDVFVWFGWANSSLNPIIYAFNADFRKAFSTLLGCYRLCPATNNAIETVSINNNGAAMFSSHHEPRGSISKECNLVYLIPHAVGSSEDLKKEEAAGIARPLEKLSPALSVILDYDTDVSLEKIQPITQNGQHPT
Sodium-dependent dopamine transporter, sequence (Q01959 whole entry): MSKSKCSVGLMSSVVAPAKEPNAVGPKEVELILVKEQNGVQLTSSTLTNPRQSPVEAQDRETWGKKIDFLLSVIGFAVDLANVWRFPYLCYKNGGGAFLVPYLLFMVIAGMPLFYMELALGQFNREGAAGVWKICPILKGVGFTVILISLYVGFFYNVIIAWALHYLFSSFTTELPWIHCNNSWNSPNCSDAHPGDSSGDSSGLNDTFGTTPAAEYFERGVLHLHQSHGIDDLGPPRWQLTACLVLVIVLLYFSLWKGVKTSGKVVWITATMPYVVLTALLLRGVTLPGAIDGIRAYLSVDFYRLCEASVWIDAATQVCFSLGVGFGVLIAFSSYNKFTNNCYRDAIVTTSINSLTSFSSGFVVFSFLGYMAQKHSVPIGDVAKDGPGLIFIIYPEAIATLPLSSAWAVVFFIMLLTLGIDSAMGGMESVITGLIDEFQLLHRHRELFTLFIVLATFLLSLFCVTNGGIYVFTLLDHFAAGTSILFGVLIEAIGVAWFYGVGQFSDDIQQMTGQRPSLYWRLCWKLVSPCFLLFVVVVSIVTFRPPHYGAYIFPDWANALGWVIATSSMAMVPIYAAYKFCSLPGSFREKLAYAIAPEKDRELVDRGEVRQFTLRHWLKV

| Structure (SMILES) | IC50 ([1]; cho-k1) | IC50 (D(1A) dopamine receptor; cho) | IC50 (Cytochrome P450 2C19) | Ki (Cytochrome P450 2C19) | IC50 (Leukotriene C4 synthase) | IC50 [2] | IC50 [3] | IC50 ([1]; read-out: IC50) [µM] | Ki [1] [µM] | IC50 (D(1A) dopamine receptor; read-out: IC50) [µM] | Ki (D(1A) dopamine receptor; read-out: Ki) [µM] |
| --- | --- | --- | --- | --- | --- | --- | --- | --- | --- | --- | --- |
| N[C@@H](Cc1ccc(N(CCCl)CCCl)cc1)C(=O)O | Not Active | Not Active | Not Active | Not Active | Not Active | Not Active | Not Active |  |  |  |  |
| CC(C)N1CCN(c2ccc(OCC3COC(Cn4cncn4)(c4ccc(Cl)cc4Cl)O3)cc2)CC1 (stereo unspecified) [TERCONAZOLE] |  |  | Not Active | Not Active | Not Active | Not Active | Not Active |  |  |  |  |
| Cc1nc2n(c(=O)c1CCN1CCC(c3noc4cc(F)ccc34)CC1)CCCC2 [RISPERIDONE] | Not Active |  | Not Active | Not Active | Not Active | Not Active | Not Active |  |  |  |  |
| N[C@@H]1[C@H]2CN(c3nc4c(cc3F)c(=O)c(C(=O)O)cn4-c3ccc(F)cc3F)C[C@@H]12 [TROVAFLOXACIN] |  | Not Active | Not Active | Not Active | Not Active | Not Active | Not Active | 62.2 | 49.4 |  |  |
| O=c1ncn2nc(Sc3ccc(F)cc3F)ccc2c1-c1c(Cl)cccc1Cl [NEFLAMAPIMOD] |  | Not Active | Not Active | Not Active | Not Active | Not Active | Not Active | 8.1 | 6.43 |  |  |
| CCCCc1oc2ccccc2c1C(=O)c1cc(I)c(OCCN(CC)CC)c(I)c1 [AMIODARONE] |  |  |  |  | Not Active | Not Active | Not Active |  |  |  |  |
| CC[C@]1(O)C[C@H]2CN(CCc3c([nH]c4ccccc34)[C@@](C(=O)OC)(c3cc4c(cc3OC)N(C=O)[C@H]3[C@@](O)(C(=O)OC)[C@H](OC(C)=O)[C@]5(CC)C=CCN6CC[C@]43[C@@H]65)C2)C1 [VINCRISTINE] | Not Active | Not Active | Not Active | Not Active | Not Active | Not Active | Not Active |  |  |  |  |
| CO[C@H]1/C=C/O[C@@]2(C)Oc3c(C)c(O)c4c(O)c(c(/C=N/N5CCN(C)CC5)c(O)c4c3C2=O)NC(=O)/C(C)=C\C=C\[C@H](C)[C@H](O)[C@@H](C)[C@@H](O)[C@@H](C)[C@H](OC(C)=O)[C@@H]1C [RIFAMPIN] | Not Active | Not Active | Not Active | Not Active | Not Active | Not Active | Not Active |  |  |  |  |
| Cc1noc(NS(=O)(=O)c2ccc(N)cc2)c1C [SULFISOXAZOLE] | Not Active | Not Active | Not Active | Not Active | Not Active | Not Active | Not Active |  |  |  |  |
| Nc1nc2ccc(OC(F)(F)F)cc2s1 [RILUZOLE] | Not Active | Not Active |  |  | Not Active | Not Active | Not Active |  |  |  |  |
| CN1CCN(CCCN2c3ccccc3Sc3ccc(Cl)cc32)CC1 [PROCHLORPERAZINE] |  |  | Not Active | Not Active | Not Active | Not Active | Not Active |  |  |  |  |
| CCOC(=O)N1CCC(=C2c3ccc(Cl)cc3CCc3cccnc32)CC1 [LORATADINE] | Not Active | Not Active |  |  | Not Active | Not Active | Not Active |  |  |  |  |
| Cc1cccc(N(C)C(=S)Oc2ccc3ccccc3c2)c1 [TOLNAFTATE] | Not Active | Not Active |  |  | Not Active | Not Active | Not Active |  |  |  |  |
| CC[C@@H](CO)NC(=O)[C@@H]1C=C2c3cccc4[nH]cc(c34)C[C@H]2N(C)C1 [METHYLERGONOVINE] | Not Active |  |  |  | Not Active | Not Active | Not Active |  |  | 1.08 | 0.539 |
| CC/C(=C(\c1ccccc1)c1ccc(OCCN(C)C)cc1)c1ccccc1 [TAMOXIFEN] |  |  | Not Active | Not Active | Not Active | Not Active | Not Active | 1.84 | 1.46 |  |  |
| CC(=O)[C@@]1(O)CC[C@H]2[C@@H]3C[C@H](C)C4=CC(=O)CC[C@]4(C)[C@H]3CC[C@@]21C | Not Active | Not Active |  |  | Not Active | Not Active | Not Active |  |  |  |  |
